{"source": "the supplement of paper PMC10307832", "experiment_in_all_cases": "relative viability (nuclei count vs DMSO), 5 days (fraction); higher = more cells survive", "key": {"[1]": {"compound": "C1=CC2=C(C=C(C(=C2N=C1)O)N=NC3=CC4=C(C=C3)C=C(C=C4)S(=O)(=O)O)S(=O)(=O)O + N=C(N)NC(=N)NCCc1ccccc1 [Phenformin] (partner 250 µM)", "method_in_brief": "(§1)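 Medians of duplicate plates are given as relative viability. That measure is the nuclei count in treated wells divided by the count in vehicle wells. Counts were taken on 4× images of lung cancer cell lines in 1536-well plates, 5 days after pin-tool dosing the day after seeding with one drug alone or a fixed anchor-drug dose plus five library-drug doses (not always all listed) in √10 steps.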"}, "[2]": {"compound": "C1=CC2=C(C=C(C(=C2N=C1)O)N=NC3=CC4=C(C=C3)C=C(C=C4)S(=O)(=O)O)S(=O)(=O)O + Nc1nc2[nH]cc(CCc3ccc(C(=O)N[C@@H](CCC(=O)O)C(=O)O)cc3)c2c(=O)[nH]1 [Pemetrexed] (partner 0.2 µM)", "method_in_brief": "as §1"}, "[3]": {"compound": "C1=CC2=C(C=C(C(=C2N=C1)O)N=NC3=CC4=C(C=C3)C=C(C=C4)S(=O)(=O)O)S(=O)(=O)O + Nc1ncn([C@H]2C[C@H](O)[C@@H](CO)O2)c(=O)n1 [Decitabine] (partner 2 µM)", "method_in_brief": "as §1"}, "[4]": {"compound": "O=C(NC1CCNCC1)c1n[nH]cc1NC(=O)c1c(Cl)cccc1Cl [AT-7519] + C[C@]1(O)C[C@@H](c2nc(-c3ccc4ccc(-c5ccccc5)nc4c3)c3c(N)nccn32)C1 [Linsitinib] (partner 1 µM)", "method_in_brief": "as §1"}}}
{"cell line": "UMC-11", "values": [{"measurement": "relative viability", "setting": "[1]; first compound 0.08 µM", "result": 0.326}, {"measurement": "relative viability", "setting": "[1]; first compound 0.253 µM", "result": 0.31}, {"measurement": "relative viability", "setting": "[1]; first compound 0.8 µM", "result": 0.336}, {"measurement": "relative viability", "setting": "[1]; first compound 2.53 µM", "result": 0.345}, {"measurement": "relative viability", "setting": "[1]; first compound 8 µM", "result": 0.338}, {"measurement": "relative viability", "setting": "[2]; first compound 0.08 µM", "result": 0.754}, {"measurement": "relative viability", "setting": "[2]; first compound 0.253 µM", "result": 0.853}, {"measurement": "relative viability", "setting": "[2]; first compound 0.8 µM", "result": 0.783}, {"measurement": "relative viability", "setting": "[2]; first compound 2.53 µM", "result": 0.717}, {"measurement": "relative viability", "setting": "[2]; first compound 8 µM", "result": 0.768}, {"measurement": "relative viability", "setting": "[3]; first compound 0.08 µM", "result": 0.506}, {"measurement": "relative viability", "setting": "[3]; first compound 0.253 µM", "result": 0.644}, {"measurement": "relative viability", "setting": "[3]; first compound 0.8 µM", "result": 0.734}, {"measurement": "relative viability", "setting": "[3]; first compound 2.53 µM", "result": 0.679}, {"measurement": "relative viability", "setting": "[3]; first compound 8 µM", "result": 0.638}, {"measurement": "relative viability", "setting": "[4]; first compound 0.01 µM", "result": 1.17}, {"measurement": "relative viability", "setting": "[4]; first compound 0.03162 µM", "result": 0.89}, {"measurement": "relative viability", "setting": "[4]; first compound 0.3162 µM", "result": 0.767}, {"measurement": "relative viability", "setting": "[4]; first compound 1 µM", "result": 0.344}]}
